Reference: PMC8956739, “A synthetic lipopeptide targeting top-priority multidrug-resistant Gram-negative pathogens” (Nature Communications, 2022)
Converted amounts (≈) assume the structure as drawn. “And” between values parts separate entries of the source, which are not always exact repeats. Equal values may be shown once. Residues, ends and D or L forms follow the SMILES beside them.

Columns and labels:
[1] = system: P. aeruginosa ATCC 27853; test: Neutropenic mouse bloodstream infection model; type: in vivo; details: single IV dose 4 mg/kg
In short: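 Female Swiss mice made neutropenic with cyclophosphamide (150 mg/kg day −4, 100 mg/kg day −1), infected IV with 50 µL of 4 × 10^8 CFU/mL. Lipopeptide 4 mg/kg (free base) IV at 2 h post-inoculation, n = 3. Efficacy = Δlog10 CFU/mL blood versus saline at 4 h post-dose.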

[2] = system: HK-2 cells; test: Transcriptomic analysis (RNA-Seq) of kidney cells; type: cell-based, human; details: for logFC, differential gene expression for all genes / log2FC: HK-2 RNA-Seq; for log2FC: Fig. 5f
Description: Human Kidney-2 (HK-2) cells (CRL-2190™, American Type Culture Collection) were treated with 100 μM colistin, F287, F319, and F365 for 24 h. Previous transcriptomic data of HK-2 cells following 24 h treatment with polymyxin B[26] were also employed for comparative bioinformatic analysis. RNA extraction was conducted as described above. Raw reads were aligned to genome GRCh38.94 (Ensembl genome database, http://ftp.ensembl.org/pub/release-94/fasta/homo_sapiens/dna/) using […] and summarized by featureCounts. Differentially expressed genes were determined using limma 3.46.0, with a combination of fold change ≥ 1.5 and FDR (by Benjamini–Hochberg algorithm) adjusted P-value ≤ 0.05 (n = 3). Key regulatory genes of HK-2 were analyzed in the context of signaling network in the Signor 2.0 database. Enrichment analysis of gene differential expression in HK-2 cells was conducted using enrichR 2.1. UpSetR 1.4.0, ComplexHeatmap 2.6.2, circlize 0.4.13 and iGraph 1.2.11 were used for data visualization. Raw data were deposited in the Short Reads Archive database under accession numbers SRR15239061-SRR15239078.

[3] = system: A. baumannii FADDI-AB30; test: Neutropenic mouse thigh infection model; type: in vivo
Description: The experimental methodology for the neutropenic mouse thigh infection model was previously described in detail. Briefly, Swiss mice (female, 7-week-old, 22–28 g) were rendered neutropenic by intraperitoneal administration of cyclophosphamide 4 days (150 mg/kg) and 1 day (100 mg/kg) prior to inoculation. Thigh infection was established by the administration of a 50 µL bolus of early log-phase bacterial suspension (4 × 10^8 CFU/mL) directly into each thigh of two mice in each group (n = 4 thighs); this method is well accepted in antibiotic pharmacokinetic/ pharmacodynamic studies to minimize animal usage. Lipopeptide solutions were prepared in sterile saline. At 2 h after inoculation, mice were administered a lipopeptide or control solution via an intraperitoneal bolus injection at 15 mg/kg, three doses every 8 h. At 0 and 24 h after the administration, animals were euthanized and each thigh was collected and homogenized under sterile conditions. Homogenate was filtered and the filtrate was collected, serially diluted in sterile saline, and spread on nutrient agar plates. Agar plates were incubated at 37 °C overnight for bacterial colony counting and the bacterial load of both thighs (log10 CFU/thigh) in each mouse was calculated. In vivo efficacy was calculated as the difference of the log10 CFU/thigh values between the treated mice at 24 h and the pre-treatment (control) at 0 h (Δlog10 CFU/thigh = log10 [treated] CFU/thigh − log10 [pre-treatment] CFU/thigh).

[4] = system: P. aeruginosa FADDI-PA090; type: cell-based, Pseudomonas aeruginosa; details: FADDI-PA090
In short: (§1)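 Susceptibility: microdilution MIC in CaMHB.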

[5] = system: P. aeruginosa FADDI-PA070; type: cell-based, Pseudomonas aeruginosa; details: FADDI-PA070
In short: as §1

[6] = system: A. baumannii FADDI-AB051; type: cell-based, Acinetobacter baumannii; details: FADDI-AB051
In short: as §1

[7] = system: A. baumannii FADDI-AB144; type: cell-based, Acinetobacter baumannii; details: FADDI-AB144
In short: as §1

[8] = system: A. baumannii FADDI-AB161; type: cell-based, Acinetobacter baumannii; details: FADDI-AB161
In short: as §1

[9] = system: K. pneumoniae FADDI-KP132; test: MIC, polymyxin-resistant isolate; type: cell-based, Klebsiella pneumoniae; details: mcr-1 positive
Description: MICs were determined in cation-adjusted Mueller–Hinton broth (CaMHB) by the broth micro-dilution method against ATCC strains and clinical isolates. MICs in the presence of Survanta® were determined as described above against P. aeruginosa ATCC 27853. In the 100 μL of fresh CaMHB containing polymyxins, 10% Survanta® (v/v, 2.5 mg/mL phospholipids) was added. MICs in the presence and absence of Survanta® were compared to determine the effect of binding to lung surfactant on the antibacterial activity of polymyxins.

[10] = system: K. pneumoniae Kp MKP103; type: cell-based, Klebsiella pneumoniae; details: polymyxin-resistant
In short: as §1

[11] = system: K. pneumoniae FADDI-KP027; type: cell-based, Klebsiella pneumoniae; details: FADDI-KP027
In short: as §1

For `CC[C@@H]1NC(=O)[C@@H](CC(C)C)NC(=O)[C@H](CCN)NC(=O)[C@@H](NC(=O)[C@H](CN)NC(=O)[C@@H](NC(=O)[C@H](CCN)NC(=O)c2ccc(Cl)cc2Cl)[C@@H](C)O)CCNC(=O)[C@H]([C@@H](C)O)NC(=O)[C@H](CCN)NC(=O)[C@H](CCN)NC1=O` [Lipopeptide F365] (HELM PEPTIDE1{[O=C(c1ccc(Cl)cc1Cl)[*:2]].[Dab].T.[NC[C@H](N[*:1])C(=O)[*:2]].[Dab].[Dab].[dL].[Abu].[Dab].[Dab].T}$PEPTIDE1,PEPTIDE1,5:R3-11:R2$$$V2.0), which “Log10 CFU/mL blood at 4 h, Mean” value ([1]; 4 h) is on record?
Its value is 4.36 Log10 CFU/mL blood.

And the “Δlog10 CFU/mL blood (mean)” value ([1]; 4 h, treated minus control, mean of replicates, 4 mg/kg)?
The value was −3.44 log10 CFU/mL blood.

What about the “Log10 CFU/mL blood at 4 h, single mouse” value ([1]; 4 h, 4 mg/kg) of the same compound?
Its value is 5.03 Log10 CFU/mL blood and 4.95 Log10 CFU/mL blood and 3.10 Log10 CFU/mL blood.

And the “Delta Log10 CFU/mL blood at 4 h, single mouse” value ([1]; treated mouse minus mean of vehicle mice, 4 mg/kg)?
The value was -2.77 Log10 CFU/mL blood and -2.85 Log10 CFU/mL blood and -4.70 Log10 CFU/mL blood.

What about the “logFC, differential gene expression for all genes” value ([2]; Geneid ENSG00000223972) of the same compound?
The value was -0.04793.

What about the “logFC, differential gene expression for all genes” value ([2]; Geneid ENSG00000227232) of the same compound?
The value was -0.06475.

And the “logFC, differential gene expression for all genes” value ([2]; Geneid ENSG00000233750)?
Its value is -1.555.

What about the “logFC, differential gene expression for all genes” value ([2]; Geneid ENSG00000278267) of the same compound?
Its value is 0.04711.

What about the log2FC ([2]; gene ENSG00000017483 SLC38A5) of the same compound?
Its log2FC is -0.03439.

What about the log2FC ([2]; gene ENSG00000023445 BIRC3) of the same compound?
Its log2FC is -0.1649.

What about the log2FC ([2]; gene ENSG00000056558 TRAF1) of the same compound?
Its log2FC is 0.4036.

What about the log2FC ([2]; gene ENSG00000066468 FGFR2) of the same compound?
Its log2FC is -0.6638.

What about the num.of.degs ([2]; number of differentially expressed genes per peptide, Fig. 6a) of the same compound?
Its num.of.degs is 70.

And the “reduction in CFU/thigh beyond polymyxin B” value ([3]; 45 mg/kg/d IP in 3 divided doses every 8 h, 24 h)?
The value was over 2.0 log10 CFU/thigh.

What about the “diff of mean Log10 CFU/lung, Pre-treament minus treatment” value ([3]; 45mg/kg/d, one way ANOVA comparison, Pre-treament - treatment) of the same compound?
Its value is 5.655 log10 CFU/thigh.

And the “diff of mean Log10 CFU/lung, Vehicle minus treatment” value ([3]; 45mg/kg/d, one way ANOVA comparison, Vehicle - treatment)?
The value was 5.9625 log10 CFU/thigh.

And the “diff of mean Log10 CFU/lung, Polymyxin B minus F365” value ([3]; both 45mg/kg/d, one way ANOVA comparison, Polymyxin B - F365)?
Its value is 2.515 log10 CFU/thigh.

What about the “Log10 CFU/lung, Thigh 1” value ([3]; neutropenic mouse thigh infection, 45mg/kg/d, Thigh 1 (Supp Fig. 4)) of the same compound?
Its value is 2.83 log10 CFU/thigh.

What about the “Log10 CFU/lung, Thigh 2” value ([3]; neutropenic mouse thigh infection, 45mg/kg/d, Thigh 2 (Supp Fig. 4)) of the same compound?
The value was 0 log10 CFU/thigh.

And the “Log10 CFU/lung, Thigh 3” value ([3]; neutropenic mouse thigh infection, 45mg/kg/d, Thigh 3 (Supp Fig. 4))?
Its value is 3.13 log10 CFU/thigh.

What about the “Log10 CFU/lung, Thigh 4” value ([3]; neutropenic mouse thigh infection, 45mg/kg/d, Thigh 4 (Supp Fig. 4)) of the same compound?
The value was 0 log10 CFU/thigh.

And the “MIC P. aeruginosa FADDI-PA090” value [4]?
Its value is 8 µg/mL (≈ 6.9 µM).

What about the “MIC P. aeruginosa FADDI-PA070” value [5] of the same compound?
Its value is over 32 µg/mL.

What about the “MIC A. baumannii FADDI-AB051” value [6] of the same compound?
The value was 0.5 µg/mL (≈ 0.431 µM).

What about the “MIC A. baumannii FADDI-AB144” value [7] of the same compound?
The value was 32 µg/mL (≈ 27.6 µM).

And the “MIC A. baumannii FADDI-AB161” value [8]?
The value was 1 µg/mL (≈ 0.862 µM).

What about the “MIC K. pneumoniae FADDI-KP132” value [9] of the same compound?
Its value is 8 µg/mL (≈ 6.9 µM).

What about the “MIC K. pneumoniae Kp MKP103” value [10] of the same compound?
The value was 8 µg/mL (≈ 6.9 µM).

What about the “MIC K. pneumoniae FADDI-KP027” value [11] of the same compound?
Its value is over 32 µg/mL.
